# Assay results from PMC6688997 (Nature Communications, 2019).
# “Also recorded” adds a separate entry of the source. Read-outs that look alike come from different tables or passages of the source.
# Columns and labels:
# [1] = PK profile, plasma concentration by LC-MS/MS; format: in vivo, nude mice; conditions: single administration of 100 mg/kg
# Description: PK profile of DS-6051b as a free base in nude mice The indicated dose of DS-6051b as a free base was administered to nude mice. Blood samples were collected at 2, 6 and 24 h post-dosing and centrifuged to separate the supernatant as plasma. […] Results are indicated as mean ± SD of the concentration of each group (N = 3).
# NEK7 = NEK7 (Homo sapiens, UniProt Q8TDX7); assay: Kinase assay, ATP Km; format: biochemical
# PKACγ = PKACγ (Homo sapiens, UniProt P22612); assay: Kinase assay, ATP Km; format: biochemical
# Chain of PKACγ (P22612 whole entry): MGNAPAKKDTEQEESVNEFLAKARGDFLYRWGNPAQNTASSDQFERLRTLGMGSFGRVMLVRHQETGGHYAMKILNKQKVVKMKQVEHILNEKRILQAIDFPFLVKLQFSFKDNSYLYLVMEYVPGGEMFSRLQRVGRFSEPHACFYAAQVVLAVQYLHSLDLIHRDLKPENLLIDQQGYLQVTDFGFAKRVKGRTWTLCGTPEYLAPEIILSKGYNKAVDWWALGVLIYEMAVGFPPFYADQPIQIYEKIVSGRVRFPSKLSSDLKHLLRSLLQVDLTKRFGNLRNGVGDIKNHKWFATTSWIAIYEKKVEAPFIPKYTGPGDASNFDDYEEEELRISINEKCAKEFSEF
# CK1α = CK1α (Homo sapiens, UniProt P48729); assay: Kinase assay, ATP Km; format: biochemical
# RSK3 = RSK3 (Homo sapiens, UniProt Q15349); assay: Kinase assay, ATP Km; format: biochemical
# Chain of RSK3 (Q15349 whole entry): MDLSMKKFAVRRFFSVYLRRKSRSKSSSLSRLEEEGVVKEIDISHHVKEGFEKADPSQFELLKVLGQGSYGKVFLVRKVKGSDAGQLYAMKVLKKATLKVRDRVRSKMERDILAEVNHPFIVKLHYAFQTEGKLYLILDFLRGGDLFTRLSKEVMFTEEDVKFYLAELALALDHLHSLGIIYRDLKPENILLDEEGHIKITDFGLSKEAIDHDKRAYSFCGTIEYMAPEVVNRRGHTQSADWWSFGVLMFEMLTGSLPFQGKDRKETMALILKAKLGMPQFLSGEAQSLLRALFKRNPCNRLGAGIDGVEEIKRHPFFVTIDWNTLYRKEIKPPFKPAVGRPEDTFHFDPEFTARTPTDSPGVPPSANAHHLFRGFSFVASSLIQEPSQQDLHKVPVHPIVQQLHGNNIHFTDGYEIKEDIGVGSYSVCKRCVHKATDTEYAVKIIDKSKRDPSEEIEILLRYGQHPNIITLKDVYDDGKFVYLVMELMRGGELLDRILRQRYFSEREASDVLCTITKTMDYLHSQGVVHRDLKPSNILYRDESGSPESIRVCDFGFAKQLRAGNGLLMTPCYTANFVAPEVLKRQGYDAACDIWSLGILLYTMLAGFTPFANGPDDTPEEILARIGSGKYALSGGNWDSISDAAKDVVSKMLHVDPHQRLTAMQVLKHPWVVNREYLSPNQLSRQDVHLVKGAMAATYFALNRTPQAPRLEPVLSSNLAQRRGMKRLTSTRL
# CRIK = CRIK (Homo sapiens, UniProt O14578); assay: Kinase assay, ATP Km; format: biochemical
# Erk2 = Erk2 (Homo sapiens, UniProt P28482); assay: Kinase assay, ATP Km; format: biochemical
# Chain of Erk2 (P28482 whole entry): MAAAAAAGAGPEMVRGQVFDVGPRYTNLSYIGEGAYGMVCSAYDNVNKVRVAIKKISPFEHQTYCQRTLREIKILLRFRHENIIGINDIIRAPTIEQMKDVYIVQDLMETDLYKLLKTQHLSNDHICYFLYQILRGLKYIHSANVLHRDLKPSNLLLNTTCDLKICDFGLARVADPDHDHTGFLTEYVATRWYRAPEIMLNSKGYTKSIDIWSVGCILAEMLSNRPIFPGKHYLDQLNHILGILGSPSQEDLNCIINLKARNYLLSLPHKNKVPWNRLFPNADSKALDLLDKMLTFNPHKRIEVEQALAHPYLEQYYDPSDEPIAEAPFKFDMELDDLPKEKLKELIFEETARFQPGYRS
# SGK3 = molecular target: T1, SGK3 (Homo sapiens, UniProt Q96BR1); assay: Kinase assay, ATP Km; format: biochemical
# T1 construct: purchased Carna Biosciences
# DAPK1 = DAPK1 (Homo sapiens, UniProt P53355); assay: Kinase assay, ATP Km; format: biochemical
# JNK1 = JNK1 (Homo sapiens, UniProt P45983); assay: Kinase assay, ATP Km; format: biochemical
# NDR1 = molecular target: T2, NDR1 (Homo sapiens, UniProt Q15208); assay: Kinase assay, ATP Km; format: biochemical
# T2 construct: purchased Carna Biosciences
# RSK1 = molecular target: T3, RSK1 (Homo sapiens, UniProt Q15418); assay: Kinase assay, ATP Km; format: biochemical
# T3 construct: purchased Carna Biosciences
# KM12 cells (TPM3-NTRK1) = assay: CellTiter-Glo cell viability assay; format: cell-based; conditions: Homo sapiens, KM12, 72 h
# Description: All media were supplemented with 100 U/ml penicillin, and 100 µg/ml streptomycin. All cells were routinely tested and verified to be free of mycoplasma contamination. […] To assess cell viability after 72-h drug treatment, 2000–5000 cells were plated in replicates of three to six in 96-well plates. Following the drug treatments, the cells were incubated with CellTiter-Glo assay reagent (Promega, Madison, WI, USA) for 10 min. […] IC50 values were determined using a nonlinear regression model with a sigmoidal dose response in GraphPad.
# GSK3α = GSK3α (Homo sapiens, UniProt P49840); assay: Kinase assay, ATP Km; format: biochemical
# EPHA6 = EPHA6 (Homo sapiens, UniProt Q9UF33); assay: Kinase assay, ATP Km; format: biochemical
# CK2α2/β = CK2α2/β (Homo sapiens, UniProt P19784); assay: Kinase assay, ATP Km; format: biochemical
# JAK2 = molecular target: T4, JAK2 (Homo sapiens, UniProt O60674); assay: Kinase assay, 1 mM ATP; format: biochemical
# T4 construct: purchased Carna Biosciences
# [2] = system: Ba/F3 TPM3-NTRK1 D679G cells; assay: CellTiter-Glo cell viability assay; format: cell-based, murine; conditions: Mus musculus, BaF3, 72 h
# SGK = molecular target: T5, SGK (Homo sapiens, UniProt O00141); assay: Kinase assay, ATP Km; format: biochemical
# T5 construct: purchased Carna Biosciences
# TYRO3 = molecular target: T6, TYRO3 (Homo sapiens, UniProt Q06418); assay: Kinase assay, ATP Km; format: biochemical
# T6 construct: purchased Carna Biosciences
# HER4 = molecular target: T7, HER4 (Homo sapiens, UniProt Q15303); assay: Kinase assay, ATP Km; format: biochemical
# T7 construct: purchased Carna Biosciences
# WNK2 = molecular target: T8, WNK2 (Homo sapiens, UniProt Q9Y3S1); assay: Kinase assay, ATP Km; format: biochemical
# T8 construct: purchased Carna Biosciences
# TRKA (NTRK1) = molecular target: T9, TRKA (NTRK1) (Homo sapiens, UniProt P04629); assay: Kinase assay, ATP Km; format: biochemical; conditions: for IC50: ATP: Km
# T9 construct: purchased Carna Biosciences, Inc. (Kobe, Japan); assay run by the vendor
# T9 sequence (P04629 33-796): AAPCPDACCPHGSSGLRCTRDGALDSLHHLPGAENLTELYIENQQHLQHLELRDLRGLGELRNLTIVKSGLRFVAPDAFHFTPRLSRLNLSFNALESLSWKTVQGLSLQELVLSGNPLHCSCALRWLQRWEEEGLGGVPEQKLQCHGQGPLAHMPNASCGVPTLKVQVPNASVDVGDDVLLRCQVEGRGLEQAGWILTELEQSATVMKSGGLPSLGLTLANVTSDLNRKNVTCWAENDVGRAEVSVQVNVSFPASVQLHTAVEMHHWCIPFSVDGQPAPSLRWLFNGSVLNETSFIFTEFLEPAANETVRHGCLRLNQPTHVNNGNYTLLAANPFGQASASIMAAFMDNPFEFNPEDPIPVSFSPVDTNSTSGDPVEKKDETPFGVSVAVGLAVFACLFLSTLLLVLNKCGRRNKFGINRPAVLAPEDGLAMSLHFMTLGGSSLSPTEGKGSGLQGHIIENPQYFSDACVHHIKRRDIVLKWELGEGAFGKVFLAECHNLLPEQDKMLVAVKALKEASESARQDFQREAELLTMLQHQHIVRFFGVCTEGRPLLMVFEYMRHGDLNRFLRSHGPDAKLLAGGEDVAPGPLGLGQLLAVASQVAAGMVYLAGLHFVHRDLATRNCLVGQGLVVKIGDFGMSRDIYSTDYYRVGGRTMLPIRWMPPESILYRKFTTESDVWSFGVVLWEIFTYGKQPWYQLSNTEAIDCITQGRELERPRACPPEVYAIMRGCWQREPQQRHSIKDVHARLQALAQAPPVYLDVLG
# PKCα = PKCα (Homo sapiens, UniProt P17252); assay: Kinase assay, ATP Km; format: biochemical
# CK1γ2 = CK1γ2 (Homo sapiens, UniProt P78368); assay: Kinase assay, ATP Km; format: biochemical
# TSSK2 = molecular target: T10, TSSK2 (Homo sapiens, UniProt Q96PF2); assay: Kinase assay, ATP Km; format: biochemical
# T10 construct: purchased Carna Biosciences
# T10 sequence (Q96PF2 whole entry): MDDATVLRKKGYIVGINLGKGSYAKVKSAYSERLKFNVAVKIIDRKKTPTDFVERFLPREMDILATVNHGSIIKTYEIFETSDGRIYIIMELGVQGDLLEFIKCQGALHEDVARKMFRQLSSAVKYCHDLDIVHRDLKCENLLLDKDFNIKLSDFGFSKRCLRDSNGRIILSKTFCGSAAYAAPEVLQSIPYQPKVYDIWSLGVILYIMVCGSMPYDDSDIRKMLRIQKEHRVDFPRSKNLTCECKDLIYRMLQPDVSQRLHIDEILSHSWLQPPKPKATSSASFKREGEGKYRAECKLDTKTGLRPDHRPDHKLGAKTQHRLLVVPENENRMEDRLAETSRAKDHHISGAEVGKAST
# JNK2 = JNK2 (Homo sapiens, UniProt P45984); assay: Kinase assay, ATP Km; format: biochemical
# HIPK4 = HIPK4 (Homo sapiens, UniProt Q8NE63); assay: Kinase assay, ATP Km; format: biochemical
# Chain of HIPK4 (Q8NE63 whole entry): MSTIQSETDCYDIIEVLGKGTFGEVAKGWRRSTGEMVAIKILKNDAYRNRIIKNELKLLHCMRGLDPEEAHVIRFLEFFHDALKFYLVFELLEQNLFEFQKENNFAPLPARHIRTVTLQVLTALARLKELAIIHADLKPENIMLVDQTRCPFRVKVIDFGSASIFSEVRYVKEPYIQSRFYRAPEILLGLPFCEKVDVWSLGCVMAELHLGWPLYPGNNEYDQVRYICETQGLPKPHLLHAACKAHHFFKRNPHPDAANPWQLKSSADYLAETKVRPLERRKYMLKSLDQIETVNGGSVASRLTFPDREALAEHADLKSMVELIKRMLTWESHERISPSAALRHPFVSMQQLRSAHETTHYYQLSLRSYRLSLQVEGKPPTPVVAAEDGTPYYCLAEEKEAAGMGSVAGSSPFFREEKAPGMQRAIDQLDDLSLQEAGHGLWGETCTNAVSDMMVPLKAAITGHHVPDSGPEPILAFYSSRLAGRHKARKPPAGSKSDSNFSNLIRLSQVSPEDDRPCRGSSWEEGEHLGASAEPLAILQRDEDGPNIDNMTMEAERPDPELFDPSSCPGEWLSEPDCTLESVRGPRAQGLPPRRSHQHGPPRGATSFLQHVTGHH
# [3] = system: EML4-ALK C1156Y induced Ba/F3 cells; assay: CellTiter-Glo cell viability assay; format: cell-based, murine; conditions: Mus musculus, BaF3, 72 h; read-out: IC50
# PHKG1 = molecular target: T11, PHKG1 (Homo sapiens, UniProt Q16816); assay: Kinase assay, ATP Km; format: biochemical
# T11 construct: purchased Carna Biosciences
# BMX = molecular target: T12, BMX (Homo sapiens, UniProt P51813); assay: Kinase assay, ATP Km; format: biochemical
# T12 construct: purchased Carna Biosciences
# [4] = system: phospho-NTRK1 in KM12 cells; assay: Immunoblot of NTRK1 phosphorylation; format: cell-based
# [5] = system: Ba/F3-CD74-ROS1 L2026M cells; assay: CellTiter-Glo cell viability assay; format: cell-based, murine; conditions: for IC50: 72 h
# LYNa = LYNa (Homo sapiens, UniProt P07948); assay: Kinase assay, ATP Km; format: biochemical
# FRK = molecular target: T13, FRK (Homo sapiens, UniProt P42685); assay: Kinase assay, ATP Km; format: biochemical
# T13 construct: purchased Carna Biosciences
# IKKβ = molecular target: T14, IKKβ (Homo sapiens, UniProt O14920); assay: Kinase assay, ATP Km; format: biochemical
# T14 construct: purchased Carna Biosciences
# T14 sequence (O14920 whole entry): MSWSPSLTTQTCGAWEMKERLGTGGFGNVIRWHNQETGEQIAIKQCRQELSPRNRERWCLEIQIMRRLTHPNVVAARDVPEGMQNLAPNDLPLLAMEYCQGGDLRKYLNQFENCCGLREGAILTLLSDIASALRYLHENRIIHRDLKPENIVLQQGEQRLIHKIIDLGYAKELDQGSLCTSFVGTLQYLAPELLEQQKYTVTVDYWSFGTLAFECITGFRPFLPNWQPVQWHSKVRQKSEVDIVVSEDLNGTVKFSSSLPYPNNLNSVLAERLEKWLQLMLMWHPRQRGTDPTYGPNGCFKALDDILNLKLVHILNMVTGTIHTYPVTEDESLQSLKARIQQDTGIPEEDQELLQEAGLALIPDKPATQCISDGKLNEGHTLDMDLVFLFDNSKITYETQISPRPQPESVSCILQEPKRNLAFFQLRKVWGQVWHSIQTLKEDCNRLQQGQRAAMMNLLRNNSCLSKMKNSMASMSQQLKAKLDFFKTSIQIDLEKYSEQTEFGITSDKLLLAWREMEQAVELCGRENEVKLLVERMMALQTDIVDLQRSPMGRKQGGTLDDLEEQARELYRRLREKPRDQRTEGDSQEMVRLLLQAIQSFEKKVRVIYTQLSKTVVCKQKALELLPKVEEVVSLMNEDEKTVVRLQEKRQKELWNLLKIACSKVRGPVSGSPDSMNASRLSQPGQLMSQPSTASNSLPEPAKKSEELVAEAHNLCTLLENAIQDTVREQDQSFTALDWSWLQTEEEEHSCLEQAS
# CDC7/ASK = molecular target: T15, CDC7/ASK (Homo sapiens, UniProt O00311); assay: Kinase assay, ATP Km; format: biochemical
# T15 construct: purchased Carna Biosciences
# PIM2 = PIM2 (Homo sapiens, UniProt Q9P1W9); assay: Kinase assay, ATP Km; format: biochemical
# TSSK3 = molecular target: T16, TSSK3 (Homo sapiens, UniProt Q96PN8); assay: Kinase assay, ATP Km; format: biochemical
# T16 construct: purchased Carna Biosciences
# T16 sequence (Q96PN8 whole entry): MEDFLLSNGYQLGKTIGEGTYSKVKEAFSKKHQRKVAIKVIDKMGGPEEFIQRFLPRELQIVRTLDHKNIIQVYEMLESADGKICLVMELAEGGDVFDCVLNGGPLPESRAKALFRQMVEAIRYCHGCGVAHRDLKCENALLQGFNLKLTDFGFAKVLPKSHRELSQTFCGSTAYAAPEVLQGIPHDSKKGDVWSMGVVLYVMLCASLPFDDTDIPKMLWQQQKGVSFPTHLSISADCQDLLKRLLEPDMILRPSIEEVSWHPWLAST
compound,measurement,setting,value
C[C@@H](N)COc1ccc(-c2cnc3ccc(N[C@H](C)c4cccc(F)c4)nn23)cc1.O=C(O)CCCCC(=O)O [DS-6051b],Peak plasma concentration,[1],around 1500 nM
same,inhibition at 0.04 µM,NEK7,-0.257%
same,inhibition at 0.04 µM,PKACγ,-1.9%
same,inhibition at 0.04 µM,CK1α,-0.531%
same,inhibition at 0.04 µM,RSK3,35.6%
same,inhibition at 0.04 µM,CRIK,-9.6%
same,inhibition at 0.04 µM,Erk2,1.5%
same,inhibition at 0.04 µM,SGK3,3.6%
same,inhibition at 0.04 µM,DAPK1,6.2%
same,inhibition at 0.04 µM,JNK1,-1.3%
same,inhibition at 0.04 µM,NDR1,51.2%
same,inhibition at 0.04 µM,RSK1,5.6%
same,IC50,KM12 cells (TPM3-NTRK1),3 to 20 nM
same,inhibition at 0.04 µM,GSK3α,-2.5%
same,inhibition at 0.04 µM,EPHA6,30.3%
same,inhibition at 0.04 µM,CK2α2/β,-0.6%
same,inhibition at 0.2 µM,JAK2,33%
same,IC50,[2],1.8 nM
same,inhibition at 0.04 µM,SGK,2.7%
same,inhibition at 0.04 µM,TYRO3,9.5%
same,inhibition at 0.04 µM,HER4,22%
same,inhibition at 0.04 µM,WNK2,-1.8%
same,inhibition at 0.04 µM,TRKA (NTRK1),101%
same,IC50,TRKA (NTRK1),sub-nanomolar
same,IC50,TRKA (NTRK1); read-out: IC50,0.622 nM
same,inhibition at 0.04 µM,PKCα,31.7%
same,inhibition at 0.04 µM,CK1γ2,-0.8%
same,inhibition at 0.04 µM,TSSK2,0.00452%
same,inhibition at 0.04 µM,JNK2,-2.4%
same,inhibition at 0.04 µM,HIPK4,2%
same,IC50,[3],48.3 nM
same,inhibition at 0.04 µM,PHKG1,48.7%
same,inhibition at 0.04 µM,BMX,53%
same,phospho-NTRK1 suppression,[4]; 10 nM,partially suppressed
same,phospho-NTRK1 suppression,[4]; 100 nM,disappeared completely
same,IC50,[5],effectively inhibited the growth; also recorded: single-digit nanomolar
same,IC50,"[5]; Mus musculus, read-out: IC50",3.6 nM
same,GI50,"[5]; Mus musculus, source data sheet, read-out: GI50",3.5 nM
same,inhibition at 0.04 µM,LYNa,46.3%
same,inhibition at 0.04 µM,FRK,63.4%
same,inhibition at 0.04 µM,IKKβ,-0.0613%
same,inhibition at 0.04 µM,CDC7/ASK,-0.178%
same,inhibition at 0.04 µM,PIM2,-2.4%
same,inhibition at 0.04 µM,TSSK3,3.2%
